In US6747058B1:
Converted amounts (≈) assume the structure as drawn.

Legend:
[1] = Pharmacokinetics (tmax) after intravenous and nebulizer inhalation administration, rat; type: in vivo; details: blood; for Tmax: single dose; for Tmax at 14 day: multiple dose (14 day)
Experimental: (§1) Two animal species, rat and dog, are administered the formulation in a 14 day multiple dose inhalation study with a nebulizer. Results from the pharmacokinetic portion of the study indicate comparability between tmax values found for intravenous and inhaled delivery.

[2] = Pharmacokinetics (tmax) after intravenous and nebulizer inhalation administration, dog; type: in vivo; details: for Tmax at 14 day / Tmax: blood; for Tmax at 14 day: multiple dose (14 day)
Experimental: as §1

[3] = cited from earlier work

Q: What does the source list for `CCCCCc1cc(O)c2c(c1)OC(C)(C)[C@@H]1CCC(C)=C[C@@H]21`?
A: Tmax ([1]; inhaled or intranasal, 0.5 mg/kg, inhalation, 0.5 mg/kg, 1.25 minutes exposure, read-out: Average tmax (converted)): 5.7 min; Tmax ([1]; inhaled or intranasal, 0.5 mg/kg, inhalation, 0.5 mg/kg, 1.25 minutes exposure, tmax minus duration of exposure, read-out: App. calc. tmax (converted)): 4.45 min; Tmax at 14 day ([1]; inhaled or intranasal, 2 mg/kg, inhalation, 2 mg/kg, 5 minutes exposure, read-out: Average tmax (converted)): 6 min; Tmax at 14 day ([1]; inhaled or intranasal, 2 mg/kg, inhalation, 2 mg/kg, 5 minutes exposure, tmax minus duration of exposure, read-out: App. calc. tmax (converted)): 1 min; Tmax ([1]; inhaled or intranasal, 4.6 mg/kg, inhalation, 4.6 mg/kg, 15 minutes exposure, read-out: Average tmax (converted)): 33.3 min; Tmax ([1]; inhaled or intranasal, 4.6 mg/kg, inhalation, 4.6 mg/kg, 15 minutes exposure, tmax minus duration of exposure, read-out: App. calc. tmax (converted)): 18.3 min; Tmax at 14 day ([1]; inhaled or intranasal, 5 mg/kg, inhalation, 5 mg/kg, 15 minutes exposure, read-out: Average tmax (converted)): 17.4 min; Tmax at 14 day ([1]; inhaled or intranasal, 5 mg/kg, inhalation, 5 mg/kg, 15 minutes exposure, tmax minus duration of exposure, read-out: App. calc. tmax (converted)): 2.4 min; Tmax at 14 day ([1]; inhaled or intranasal, 15 mg/kg, inhalation, 15 mg/kg, 45 minutes exposure, read-out: Average tmax (converted)): 46.2 min; Tmax at 14 day ([1]; inhaled or intranasal, 15 mg/kg, inhalation, 15 mg/kg, 45 minutes exposure, tmax minus duration of exposure, read-out: App. calc. tmax (converted)): 1.2 min; Tmax ([1]; iv, 2 mg/kg, IV, 2 mg/kg, read-out: Average tmax (converted)): 2.1 min; Tmax ([1]; iv, 2 mg/kg, IV, 2 mg/kg, tmax minus duration of exposure, read-out: App. calc. tmax (converted)): 2.1 min; App. calc. tmax ([2]; IV, 1 mg/kg, single dose, tmax minus duration of exposure): 1.9 min; Tmax at 14 day ([2]; inhaled or intranasal, 2 mg/kg, inhalation, 2 mg/kg, 8 minutes exposure, read-out: Average tmax (converted)): 10.2 min; Tmax at 14 day ([2]; inhaled or intranasal, 2 mg/kg, inhalation, 2 mg/kg, 8 minutes exposure, tmax minus duration of exposure, read-out: App. calc. tmax (converted)): 2.2 min; Tmax ([2]; inhaled or intranasal, 2 mg/kg, inhalation, 2 mg/kg, 8 minutes exposure, single dose, read-out: Average tmax (converted)): 15.6 min; Tmax ([2]; inhaled or intranasal, 2 mg/kg, inhalation, 2 mg/kg, 8 minutes exposure, single dose, tmax minus duration of exposure, read-out: App. calc. tmax (converted)): 7.6 min; Tmax at 14 day ([2]; inhaled or intranasal, 5 mg/kg, inhalation, 5 mg/kg, 20 minutes exposure, read-out: Average tmax (converted)): 22.2 min; Tmax at 14 day ([2]; inhaled or intranasal, 5 mg/kg, inhalation, 5 mg/kg, 20 minutes exposure, tmax minus duration of exposure, read-out: App. calc. tmax (converted)): 2.2 min; Tmax at 14 day ([2]; inhaled or intranasal, 15 mg/kg, inhalation, 15 mg/kg, 60 minutes exposure, read-out: Average tmax (converted)): 66 min; Tmax at 14 day ([2]; inhaled or intranasal, 15 mg/kg, inhalation, 15 mg/kg, 60 minutes exposure, tmax minus duration of exposure, read-out: App. calc. tmax (converted)): 6 min; Tmax ([2]; iv, 1 mg/kg, IV, 1 mg/kg, single dose, read-out: Average tmax (converted)): 1.8 min; Tmax ([2]; iv, 1 mg/kg, IV, 1 mg/kg, single dose, tmax minus duration of exposure, read-out: App. calc. tmax (converted)): 1.8 min; solubility in water [3]: 3000 µg/mL (≈ 9.54 mM)
